Data as given in publication PMC8954004, “Biochemical Basis of Xylooligosaccharide Utilisation by Gut Bacteria” (International Journal of Molecular Sciences, 2022).

B1: Lr-XylC (Limosilactobacillus reuteri subsp. suis) (protein)
chain: MNIYVDKNVPIDGNGQKTHPFKTIQAAANIAQPGDTVLVAPGIYRENVNPKNSGTSSKRITYKSSENLGAVITGAERVTSWEKIDDNVWKVNIPNGVFADYNPYITKVYGDWFDARIIAHTGEVYLNDKALYEVNSLDEVKKPVRNEKSWYPNDTLYTWFTEQDDRNNETIIYANFQGNNPNKENVEINVRENCFYPQAEGIGYITLSGFGVTKAATRWAPPTAYQEGMIGPHWSKGWIIEKCDISHSKCSGISLGKYLQPNNDNKWSKWKYKDGTQTERDAICQASYEGWDKEHVGSHIVRQNHIHDCGQTGIVGHLGGVFSLIEDNDIHDINVRQNLAGAEIGGIKMHAAIDVTYRHNHIHHCTRGLWLDWQAQGTRVTQNVFDHNSLPNDFKVTKDNLDDVLSGLGEDMWIEVSHGPTLIDNNLLLSDRSVRLAAQGVAFVHNLIAGSFTATGRGTDNNSVNLPSNRFTPYHEIHGTKVMGFMTIQHGDNKFYNNIFVQQKLRPEMQKLANMKKDEPDDWDDYNFKVGTKPFDNYPTFEEWKKQFDGYCGIYAPNSDHYYNHLPIWSAGNIYFNGAEPCNMEKDAIISDKKIQLKLEQRDEGLFLKTNLFNAVPAKTDGVISTDTIMMAFEPEEKYENPDGTPIIFNTDFFGTHREGIKVTAGPFAKGNEASSRLF
notes: recombinant E. coli Rosetta (DE3), pET28a, His-tag, any signal peptide excluded; ~75 kDa; catalytic Asp382 and Glu415

What was measured:
Bp-XylX-1 = molecular target: T1, Bp-XylX-1 (Blautia producta, UniProt A0ABX6JHR7); experiment: inhibition of pNP-Xyl hydrolysis, absorbance […] nm; assay type: biochemical; conditions: 2 mM pNP-Xyl, 50 mM sodium phosphate pH 5.7, 45 °C, 5 min; 200 mM xylose
T1 construct: gene GXM18_27615; recombinant E. coli Rosetta (DE3), pET28a, His-tag, any signal peptide excluded; ~75 kDa; catalytic Asp371 and Glu408; strain proteome UP000464715

Bp-XylX-2 = molecular target: T2, Bp-XylX-2 (Blautia producta, UniProt A0ABX6JGM7); experiment: inhibition of pNP-Xyl hydrolysis, absorbance […] nm; assay type: biochemical; conditions: 2 mM pNP-Xyl, 50 mM sodium phosphate pH 5.7, 45 °C, 5 min; 200 mM xylose
T2 construct: gene GXM18_22300; recombinant E. coli Rosetta (DE3), pET28a, His-tag, any signal peptide excluded; ~75 kDa; catalytic Asp386 and Glu409; strain proteome UP000464715

Lr-XylC = molecular target: T3, Lr-XylC (Limosilactobacillus reuteri, UniProt A0A0S4NRU4); experiment: inhibition of pNP-Xyl hydrolysis, absorbance […] nm; assay type: biochemical; conditions: 2 mM pNP-Xyl, 50 mM sodium phosphate pH 5.7, 45 °C, 5 min; 200 mM xylose
T3 construct: recombinant E. coli Rosetta (DE3), pET28a, His-tag, any signal peptide excluded; ~75 kDa; catalytic Asp382 and Glu415
T3 sequence (A0A0S4NRU4 1-679): B1 chain

purified protein = substrate: O=[N+]([O-])c1ccc(O[C@@H]2OC[C@@H](O)[C@H](O)[C@H]2O)cc1; experiment: purified protein; assay type: biochemical, Limosilactobacillus reuteri; conditions: sodium phosphate pH 5.7 (50 mM in Table 1, 10 mM in methods), 45 °C, 10 min, 1.3 µM enzyme

T1 sequence (A0ABX6JHR7 entry or part of it): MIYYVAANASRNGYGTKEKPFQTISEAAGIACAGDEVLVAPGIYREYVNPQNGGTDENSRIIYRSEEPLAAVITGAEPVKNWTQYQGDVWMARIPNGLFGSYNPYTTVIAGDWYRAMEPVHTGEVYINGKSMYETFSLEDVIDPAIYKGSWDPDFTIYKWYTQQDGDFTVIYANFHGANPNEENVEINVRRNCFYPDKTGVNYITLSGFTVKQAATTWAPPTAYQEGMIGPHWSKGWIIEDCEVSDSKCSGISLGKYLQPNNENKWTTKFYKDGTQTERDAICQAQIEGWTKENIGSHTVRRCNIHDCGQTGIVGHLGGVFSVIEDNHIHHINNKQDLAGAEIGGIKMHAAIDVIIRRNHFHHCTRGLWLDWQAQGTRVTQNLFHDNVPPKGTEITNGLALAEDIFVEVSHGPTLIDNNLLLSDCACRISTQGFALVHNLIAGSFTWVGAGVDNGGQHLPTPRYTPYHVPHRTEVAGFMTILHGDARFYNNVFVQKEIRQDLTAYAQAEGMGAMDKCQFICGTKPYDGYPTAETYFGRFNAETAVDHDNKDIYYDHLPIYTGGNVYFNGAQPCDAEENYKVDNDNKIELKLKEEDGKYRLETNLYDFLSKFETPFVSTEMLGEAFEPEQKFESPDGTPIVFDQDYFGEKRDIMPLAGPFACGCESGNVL
T2 sequence (A0ABX6JGM7 entry or part of it): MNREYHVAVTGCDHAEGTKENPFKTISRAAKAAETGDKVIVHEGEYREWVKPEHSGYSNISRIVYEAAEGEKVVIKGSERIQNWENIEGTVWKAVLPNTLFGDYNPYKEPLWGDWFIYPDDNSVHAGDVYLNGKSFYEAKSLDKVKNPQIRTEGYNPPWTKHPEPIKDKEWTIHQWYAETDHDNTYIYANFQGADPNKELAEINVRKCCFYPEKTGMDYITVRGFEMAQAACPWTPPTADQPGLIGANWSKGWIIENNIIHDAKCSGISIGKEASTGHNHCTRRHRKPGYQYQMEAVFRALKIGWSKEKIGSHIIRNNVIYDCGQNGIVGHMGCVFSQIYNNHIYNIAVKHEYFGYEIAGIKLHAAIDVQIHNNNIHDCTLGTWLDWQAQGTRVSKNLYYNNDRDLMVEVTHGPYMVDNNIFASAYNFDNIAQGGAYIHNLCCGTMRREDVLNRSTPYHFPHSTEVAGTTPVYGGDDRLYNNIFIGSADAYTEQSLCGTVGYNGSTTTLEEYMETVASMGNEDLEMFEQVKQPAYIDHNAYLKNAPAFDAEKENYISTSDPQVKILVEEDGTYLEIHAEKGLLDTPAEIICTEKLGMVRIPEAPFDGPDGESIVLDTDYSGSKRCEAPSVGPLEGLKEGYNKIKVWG

Row | Molecule | % reduction in activity at 200 mM (Bp-XylX-1) | % reduction in activity at 200 mM (Bp-XylX-2) | % reduction in activity at 200 mM (Lr-XylC) | Km (purified protein) [µM] | kcat (purified protein) [s⁻¹] | kcat/Km (purified protein) [M⁻¹ s⁻¹]
1 | OC1OC[C@@H](O)[C@H](O)[C@H]1O (stereo partly drawn) [xylose] | ~ 42% | ~ 26% | ~ 12% |  |  | 
2 | B1 |  |  |  | 230 ± 20 | 11.4 ± 0.2 | 49000
